Reference: patent publication US20220411448A1, “CHROMENE-4-ONE DERIVATIVES AS BRAIN-DERIVED NEUROTROPHIC FACTOR (BDNF) MIMETICS” (FLORATEK PHARMA AG, priority 2019, published 2022)

Legend:
Arc, cFos, and Zif268 = assay: Quantitative PCR of immediate-early genes linked to neuronal plasticity; type: cell-based, mouse; conditions: 1 μM and 10 μM, 1 h and 2 h treatment
Description: (§1) The effect of Compound A or derivative thereof on the mRNA expression of genes related to plasticity (Arc, cFos, and Zif268) was determined as described. Cox (cytochrome oxidase) was used to evaluate if the derivative changes expression of mitochondrial genes.
(§2) Determination of gene expression was performed as previously described [Yang J, et al, Lactate promotes plasticity gene expression by potentiating NMDA signalling in neurons. Proc Natl Acad Sci USA. 2014. 111(33):12228-33]. Total RNA was isolated from cultured cells using Nucleospin RNA II kit (Macherey-Nagel) according to the manufacturer's instructions. The first strand of cDNA was synthesized from 100 ng of total RNA (60 min at 37° C. followed by 5 min at 95° C.) using a high-capacity RNA to cDNA reverse transcription system (Applied Biosystems). One-twentieth of the resulting cDNA was amplified by quantitative PCR (qPCR) with an ABI Prism 7900 system (Applied Biosystems). The PCR mix was composed of 6 ng of cDNA, 300 nM of forward and reverse primers in 10 μL of ix SYBR-Green PCR MasterMix (Applied Biosystems). Primer sequences were designed using Primer Express 3.0 software (Applied Biosystems) and oligonucleotides were synthesized by Microsynth.

[1] = tested on: cortical neurons with MPP+ lesion; assay: MPP+ induced ROS in cortical neurons (DCFDA); type: cell-based, mouse; conditions: 0.5 and 1 μM, 8 h MPP+ lesion
Description: Mouse cortical neurons were prepared as described. At DIV8 cells were treated with the test and control MK801 compounds for 1 h, before the addition of MPP+(Sigma, D048) at a final concentration of 100-200 μM. The experiment was carried out with n=6 technical replicates per condition, vehicle and MPP+ alone controls were included. After 8 h determination of ROS was conducted and after 24 h of MPP+ lesion on DIV9 cells were subject to the apoptosis measurement. Apoptosis was determined using YO-PRO™-1 Iodide (Invitrogen; Y3603). Part of supernatant of the cultivated cells was removed and 10 μL of a 50 μM YO-PRO 1 solution in PBS is added to the remaining 90 μL to result in a final concentration of 5 μM YO-PRO 1 in well. Incubation for 15 min in the incubator at 37° C. was performed (light protected) followed by discarding the supernatant. 140 μL PBS was added to each well and the fluorescence was measured using a plate-reader (Cytation 5, BioTek) at excitation wavelength 485 nm to Emission wavelength 535 nm.
ROS generation was measured with Abcam's DCFDA-Cellular Reactive Oxygen Species Detection Assay (ab 113851). […] Cells were then incubated with the test items and lesion for 8 h and thereafter the fluorescent signal was measured at 485 nm/535 nm (Cytation 5, BioTek).

[2] = tested on: organotypic hippocampal brain slices with IAA lesion; assay: Organotypic brain slices, iodoacetic acid injury: cell survival (MTT); type: cell-based, mouse; conditions: SND118 10 and 30 μM; SND124 30 μM; 7,8 DHF 10 μm; IAA 250 μM for 110 min
Description: Preparation of the organotypic brain slices were performed by decapitation of the P9/P10 mouse pups, removing skin and skull and immersing brains in slicing medium (Opti-MEM 1, […]). Brains were hemisected and hippocampi were isolated. Hippocampi were placed on the cutting disc of a McIlwain Tissue Chopper. […] hippocampal slices were chopped transversely. A number of 4 slices per hippocampus were placed on porous (0.4 μM) transparent membrane inserts (Millipore) and incubated for 1 h on ice in HBSS containing 10 mM glucose. Afterwards inserts were transferred to fresh 24-well plates containing 250-300 μl culture medium (50% MEM/EBSS, 25% horse serum, 25% CMF-HBSS, 25 mM glucose, 0.5% pen/strep). Slices were maintained at 37° C. and 5% CO2.
On DV15, brain slices were pretreated with SND derivatives test compounds and the reference 7,8DHF at various concentrations (between […]) for 30 min, followed by the addition of iodoacetic acid (IAA) at 250 μM for 110 min, when cell survival, MMP and toxicity were measured.
Cell survival was measured by the MTT assay. For the determination of mitochondrial membrane potential, treated organotypic brain slices were loaded with the mitochondrial fluorescent dye, tetramethylrhodamine methyl ester (TMRM) at a final concentration of 100 nM in PBS and incubated for 45 min at 37° C. The TMRM containing solution was aspirated and slices were transferred into new well plates containing the appropriate amount of PBS. Fluorescence was measured with a plate-reader (Cytation 5) using wavelengths of excitation and emission of 548 and 574 nm, respectively (area scan). Values were calculated as percent of control values (vehicle control). Toxicity of the treatment was measured by LDH. No toxicity was observed.

NO = assay: LPS stimulation of BV-2 microglia: NO (Griess reagent); type: cell-based, murine; conditions: between 0.3 and 3 μM, BV2, LPS 500 ng/ml, 24 h
Description: The murine microglial cell line BV-2 was grown in DMEM medium supplemented with 10% FCS, 1% penicillin/streptomycin and 2 mM L-glutamine (culture medium). For LPS stimulation assay, 10000 BV-2 cells per well (uncoated 96 well plates) were plated and after 24 hours, medium was changed to serum-free treatment medium (DMEM, 2 mM L-glutamine) and cells were maintained in treatment medium for the remaining culture period. 1 h after changing cells to treatment medium, the test items were added 1 hour before LPS stimulation (Sigma-Aldrich; L6529; 1 mg/ml stock in ddH2O, final concentration in well: 500 ng/ml (dilutions in medium)). Cells treated with vehicle, cells treated with LPS alone, as well as cells treated with LPS plus reference dexamethasone at 10 μM item served as controls.
Following 24 h of stimulation, cell supernatants were collected for the NO, and cytokine measurements. Levels of 2 cytokines (TNF-α, IL-6) were measured by an immunosorbent assay (U-PLEX Custom […] Cytokine, Mesoscale Discovery) according to the instructions of the manufacturer and evaluated in comparison to calibration curves provided in the kit. […] Absorbance was measured at 570 nm. Nitrosative stress was evaluated in the study samples in comparison to a NaNO2 standard curve. […]

Cox (cytochrome oxidase) = assay: Quantitative PCR of mitochondrial gene Cox; type: cell-based, mouse; conditions: 1 μM and 10 μM, 1 h and 2 h treatment
Description: as §1, §2

For `O=c1cc(-c2ccc(CCCC[P+](c3ccccc3)(c3ccccc3)c3ccccc3)cc2)oc2c(O)c(O)ccc12` [SND118, 4-[4-(7,8-dihydroxy-4-oxo-chromen-2-yl)phenyl]butyltriphenylphosphonium bromide], the “mRNA expression of genes related to plasticity (Arc, cFos, and Zif268)” value (Arc, cFos, and Zif268) was “increased”, the “level of ROS induced by MPP+ (DCFDA)” value [1] was “decreased the level of ROS” and the “cell survival upon IAA lesion (MTT)” value [2] was “statistically increase cell survival”. For the same molecule, the “level of NO in response to LPS stimulation” value (NO) was “significantly decreased” and the “mRNA expression of Cox (cytochrome oxidase)” value (Cox (cytochrome oxidase)) was “unaffected”.
